Experimental data from ChEMBL document CHEMBL1130657, “Synthesis of novel fluorinated coumarins: excellent UV-light excitable fluorescent dyes” (Bioorg Med Chem Lett, 1998).

Test: Photostability, pKa was evaluated
Format: physicochemical

| pKa | Structure (SMILES) |
| --- | --- |
| 4.7 | Cc1c(CC(=O)O)c(=O)oc2c(F)c(O)c(F)cc12 |
| 3.7 | O=C(O)c1cc2cc(F)c(O)c(F)c2oc1=O |
| 6.4 | Cc1cc(=O)oc2c(F)c(O)ccc12 |
| 3.8 | CCOC(=O)c1cc2cc(F)c(O)c(F)c2oc1=O |
| 7.5 | O=C(O)c1cc2ccc(O)cc2oc1=O |
